{"source": "paper PMC9983021", "about": "“Novel GluN2B-Selective NMDA Receptor Negative Allosteric Modulator Possesses Intrinsic Analgesic Properties and Enhances Analgesia of Morphine in a Rodent Tail Flick Pain Model” (ACS Chemical Neuroscience, 2023)", "key": {"GluN1/GluN2D": {"target": "GluN1/GluN2D (Rattus norvegicus, UniProt P35439+Q62645)", "sequence (Q62645 28-1323, other chains not shown)": "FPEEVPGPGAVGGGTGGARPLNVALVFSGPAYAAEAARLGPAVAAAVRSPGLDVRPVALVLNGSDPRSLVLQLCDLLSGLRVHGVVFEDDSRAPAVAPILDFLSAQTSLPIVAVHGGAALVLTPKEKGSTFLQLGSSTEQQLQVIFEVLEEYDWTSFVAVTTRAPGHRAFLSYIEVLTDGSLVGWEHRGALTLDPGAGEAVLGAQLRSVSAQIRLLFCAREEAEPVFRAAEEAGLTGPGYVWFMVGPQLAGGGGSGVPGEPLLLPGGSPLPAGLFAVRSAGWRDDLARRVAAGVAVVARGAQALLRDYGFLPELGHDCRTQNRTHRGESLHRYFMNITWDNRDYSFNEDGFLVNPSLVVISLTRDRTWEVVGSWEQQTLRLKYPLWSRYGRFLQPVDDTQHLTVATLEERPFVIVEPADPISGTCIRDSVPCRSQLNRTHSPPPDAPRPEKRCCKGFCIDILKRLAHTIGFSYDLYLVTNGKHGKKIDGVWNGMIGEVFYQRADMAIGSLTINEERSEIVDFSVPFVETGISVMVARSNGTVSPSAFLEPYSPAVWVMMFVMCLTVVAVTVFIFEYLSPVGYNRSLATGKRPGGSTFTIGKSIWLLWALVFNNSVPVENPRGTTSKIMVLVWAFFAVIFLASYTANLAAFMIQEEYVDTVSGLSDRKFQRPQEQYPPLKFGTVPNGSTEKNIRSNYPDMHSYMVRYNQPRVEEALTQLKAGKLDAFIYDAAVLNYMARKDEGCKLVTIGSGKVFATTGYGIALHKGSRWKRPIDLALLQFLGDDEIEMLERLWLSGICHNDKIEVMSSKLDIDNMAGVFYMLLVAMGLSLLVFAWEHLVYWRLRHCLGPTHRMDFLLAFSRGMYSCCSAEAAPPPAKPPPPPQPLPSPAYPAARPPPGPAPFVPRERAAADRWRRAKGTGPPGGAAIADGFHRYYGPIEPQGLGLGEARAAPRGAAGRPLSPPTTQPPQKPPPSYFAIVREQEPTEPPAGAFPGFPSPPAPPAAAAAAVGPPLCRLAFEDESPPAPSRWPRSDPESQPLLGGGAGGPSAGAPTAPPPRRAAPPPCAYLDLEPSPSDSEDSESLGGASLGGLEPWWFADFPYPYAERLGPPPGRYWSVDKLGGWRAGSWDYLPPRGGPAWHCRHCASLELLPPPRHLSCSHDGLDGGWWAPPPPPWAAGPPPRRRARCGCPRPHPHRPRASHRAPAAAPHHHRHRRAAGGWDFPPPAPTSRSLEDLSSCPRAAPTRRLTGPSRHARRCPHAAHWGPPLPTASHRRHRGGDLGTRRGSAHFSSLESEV"}, "C57BL/6J mice [1]": {"test_system": "C57BL/6J mice", "assay": "Preestablished morphine tolerance (tolerant mice, tail immersion test)", "format": "in vivo", "details": "males 10 mg/kg, females 20 mg/kg i.p.", "text": "We next wanted to assess EU93-108 for effects on other facets of tolerance. Specifically, we were interested in whether EU93-108 could increase tail flick latency in mice that were already tolerant to morphine (i.e., preestablished tolerance). To assess the effect of EU93-108 on preestablished tolerance, five groups were used (n = 8 per group): vehicle/saline, vehicle/morphine, ifenprodil/morphine, EU93-108/saline, and EU93-108/morphine. All groups except for the vehicle/saline control group were administered morphine three times per day (according to the stair stepping protocol outlined in Figure 11) at gradually increasing doses from 25 to 40 mg/kg three times a day at 3–4 h intervals for three consecutive days until tolerance was observed on day 4 (Figure 12, black circles).\nFigure 11 Dosing regimen to assess effects of EU93-108 on tolerant mice. TIT = tail immersion test. All mice received morphine or saline three times a day according to the protocol in Figure 9. Doses of morphine are shown above the arrows, in mg/kg. Once tolerance was established on day 4, the mice were randomly assigned to receive vehicle, EU93-108, or ifenprodil once a day for two consecutive days. […]\n(§1) Mouse weights were recorded on the day of each experiment. […] Three recordings were taken for each mouse, and each data point is expressed as the mean of the three recordings. […] The identities were not decoded until the data were analyzed.\n(§2) Prism 9.3.1 software (GraphPad, San Diego, CA) was used for all data analysis and visualization. Data for intrinsic antinociception was analyzed using one-way ANOVA and Dunnett’s post hoc test for multiple comparisons where each group was compared to vehicle. Data for acute morphine potentiation experiments were analyzed using one-way ANOVA and Tukey’s post hoc test for multiple comparisons was also used, where each group mean was compared to the mean of every other group. Data for tolerance experiments were analyzed using repeated measures two-way ANOVA and Bonferroni post hoc analysis. […]"}, "[2]": {"target": "triheteromeric rat GluN1/GluN2Ac1/GluN2Bc2 (r2Ac1/r2Bc2) (Rattus norvegicus, UniProt P35439+Q00959+Q00960, A876H/F846L/G856D/H848F/K857R/M851T/M860L/Q845K/V861L)", "assay": "Concentration-inhibition curves, oocytes, C1/C2-tagged NMDARs", "format": "cell-based"}, "C57BL/6J mice [3]": {"test_system": "C57BL/6J mice", "assay": "Morphine analgesic tolerance development, chronic co-administration (tail immersion test)", "format": "in vivo", "details": "male (10 mg/kg) and female (20 mg/kg) mice; co-administered with morphine three times a day for three days", "description": "Morphine tolerance was induced using repeated administration of increasing doses of morphine from 25 to 40 mg/kg three times a day at 3 to 4 h intervals over three consecutive days (Figure 9). This procedure was adapted from previous publications.[87]−[89]\nFigure 9 Morphine analgesic tolerance “stair stepping” dosing regimen. TIT = tail immersion test. On day 1, TIT was conducted to determine baseline latencies for all mice. On days 1 through 3, each mouse was administered morphine s.c. three times per day at doses increasing from 25 to 40 mg/kg at 8:00 am, 12:00 pm, and 4:00 pm. Doses of morphine are shown above the arrows, in mg/kg. […]\nas §1\nas §2, with “group.” for “group. Data for tolerance experiments were analyzed using repeated measures two-way ANOVA and Bonferroni post hoc analysis.”"}, "hP2x": {"test_system": "hP2x", "assay": "Off-target ligand-gated ion channels in Xenopus oocytes", "format": "cell-based, human", "details": "agonist 9 µM ATP; mean ± SEM", "description": "EU93-108 was further examined for its behavior against common off-target receptors. First, selectivity for GluN2B over other ion channels in the brain was examined via two-electrode voltage clamp recordings of Xenopus oocytes expressing AMPA, kainate, nicotinic acetylcholine, serotonin, GABA, glycine, and ATP receptors. Current responses were tested with saturating concentrations of agonist in both the absence and presence of 10 μM EU93-108, and confirmed selectivity for GluN2B-containing NMDA receptors over AMPA, kainate, GABA, glycine, ATP, and 5-HT3A receptors (Supporting Table S3).\nReceptor Agonist % Control\nSupplemental Table S3. Off-target actions of EU93-108 at ligand-gated ion channels expressed in Xenopus oocytes. The mean ± standard error of the mean for agonist plus 10 μM EU93-108 as a percentage of agonist in vehicle are given for each compound and receptor tested. Number of oocytes tested is given in parentheses."}, "GABAA": {"test_system": "GABAA", "assay": "Radioligand binding assay (NIMH PDSP)", "design": "species or system human", "details": "primary screen, 10 µM, quadruplicate", "description": "Conventional competition and saturation radioligand binding assays were used to determine the affinities of reference standards and EU93-108. Experiments were carried out by the NIMH Psychoactive Drug Screening Program (PDSP) and were performed as previously described.[123]\nThe detailed experimental protocols for the radioligand assays are available on the NIMH PDSP website at https://pdsp.unc.edu/pdspweb/content/UNC-CH%20Protocol%20Book.pdf.\nReceptor Mean % Receptor Mean % Receptor Mean %\nInhibition Inhibition Inhibition\nSupplemental Table S4. Off-Target Actions of EU93-108: Primary GPCR Screen. Cloned human molecular targets were individually expressed and submitted to molecular target-based screening with initial screens performed at a final concentration of 10 µM in quadruplicate. Complete protocols for the assays have been previously published (Besnard J et al. 2012). Where inhibition greater than 50% was measured, secondary screens were performed wherein Ki values were calculated (see Table 4)."}}}
{"smiles": "CS(=O)(=O)Nc1ccc(OC[C@@H](O)CN2CCN(c3ccc(F)c(F)c3)CC2)cc1", "note": "[EU93-108, (S)-N-(4-(3-(4-(3,4-Difluorophenyl)piperazin-1-yl)-2-hydroxypropoxy)phenyl)methanesulfonamide]", "values": [{"measurement": "% Control 10 µM EU93-108", "setting": "GluN1/GluN2D; agonist 100 µM glutamate, 30 µM glycine, mean ± SEM", "value": "97 ± 1.9", "unit": "%"}, {"measurement": "inhibition at 10 µM", "setting": "GluN1/GluN2D; read-out: Mean % Inhibition by 10 μM EU93-108", "value": "4.6 ± 1.2", "unit": "%"}, {"measurement": "tail flick latency in morphine-tolerant mice, day 5 vs day 4", "setting": "C57BL/6J mice [1]; co-administered with morphine", "value": "did not show a further decrease in latency on day 5"}, {"measurement": "tail flick latency in morphine-tolerant mice, day 5 vs day 4", "setting": "C57BL/6J mice [1]; given with saline (no morphine)", "value": "most significant decrease in latency"}, {"measurement": "residual current remaining at 10 μM EU93-108", "setting": "[2]; 10 μM, % of maximal response, n = 12", "value": 54, "unit": "%"}, {"measurement": "IC50", "setting": "[2]; 100 μM glutamate and 100 μM glycine, −40 mV, pH 7.4, n = 12", "value": 543, "unit": "nM"}, {"measurement": "nH", "setting": "[2]; Hill slope factor of the inhibition curve, Table S1", "value": -0.92}, {"measurement": "Ymin", "setting": "[2]; residual response, Table S1, N = 12", "value": 54.0}, {"measurement": "effect on development of morphine tolerance", "setting": "C57BL/6J mice [3]", "value": "failed to inhibit the development of tolerance"}, {"measurement": "% Control 10 µM EU93-108", "setting": "hP2x", "value": "96.6 ± 4.3", "unit": "%"}, {"measurement": "Mean % Inhibition", "setting": "GABAA", "value": 1.91, "unit": "%"}]}
